Assay results from the supplement of paper PMC11208160.

Test: recombinant UMI read abundance after kanamycin selection (control-corrected) (log10(CPM+1)); higher = more efficient recombination; extreme values may be limits of the assay; sequences stand for … in AGTGCAGAGAAAATCGGCCAGTTTTCTCTGCCTGCAGTCCGCATGCCGTGGGACCCCTTGGGTTCTAACCTGTTGCCTAGATTTATGCAGCGGACTGCCTTTCTCCCAAAGTGATAAACCGG…AGGTTGGTTTCACT; site = the 11-nt donor
Method in brief: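 After plating on IPTG (0.07 mM) plus kanamycin, or unselected, in two replicates, recombinant UMIs were PCR-amplified across the donor–target junction and sequenced. The cells were Escherichia coli co-electroporated with a UMI-tagged donor and donor-binding-loop pair library and a target plasmid with a fixed target and T7-inducible IS621 bridge recombinase. Values are log10(CPM+1), with CPM averaged over replicates and scaled by control-derived factors.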
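Note: IS621 bridge recombinase in Escherichia coli cells against a fixed T5 target plasmid.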

Sequence | recombinant UMI read abundance (log10)
GGTCCAACATGGACCGGTTTTCCCGGTAATCCGTATTTGTA (site GATCCAACTTA) | 0.0069
GGTCCAACATGGACCGGTTTTCCCGGTAATCCGTATTTGTA (site GCTCCAACTTA) | 0.00409
GGTCCAACATGGACCGGTTTTCCCGGTAATCCGTATTTGTA (site GGACCAACTTA) | 0.00547
GGTCCAACATGGACCGGTTTTCCCGGTAATCCGTATTTGTA (site GGCCCAACTTA) | 0.0162
GGTCCAACATGGACCGGTTTTCCCGGTAATCCGTATTTGTA (site GGGCCAACTTA) | 0.00345
GGTCCAACATGGACCGGTTTTCCCGGTAATCCGTATTTGTA (site GGTACAACTTA) | 0.00331
GGTCCAACATGGACCGGTTTTCCCGGTAATCCGTATTTGTA (site GGTCAAACTTA) | 0.0208
GGTCCAACATGGACCGGTTTTCCCGGTAATCCGTATTTGTA (site GGTCCAACTAA) | 0.0196
GGTCCAACATGGACCGGTTTTCCCGGTAATCCGTATTTGTA (site GGTCCAACTCA) | 0.0175
GGTCCAACATGGACCGGTTTTCCCGGTAATCCGTATTTGTA (site GGTCCAACTGA) | 0
GGTCCAACATGGACCGGTTTTCCCGGTAATCCGTATTTGTA (site GGTCCAACTTA) | 0.431
GGTCCAACATGGACCGGTTTTCCCGGTAATCCGTATTTGTA (site GGTCCAACTTC) | 0.0212
GGTCCAACATGGACCGGTTTTCCCGGTAATCCGTATTTGTA (site GGTCCAACTTG) | 0.016
GGTCCAACATGGACCGGTTTTCCCGGTAATCCGTATTTGTA (site GGTCCAACTTT) | 0.0114
GGTCCAACATGGACCGGTTTTCCCGGTAATCCGTATTTGTA (site GGTCCACCTTA) | 0.011
GGTCCAACATGGACCGGTTTTCCCGGTAATCCGTATTTGTA (site GGTCCAGCTTA) | 0.015
GGTCCAACATGGACCGGTTTTCCCGGTAATCCGTATTTGTA (site GGTCCATCTTA) | 0.583
GGTCCAACATGGACCGGTTTTCCCGGTAATCCGTATTTGTA (site GGTCCCACTTA) | 0.00585
GGTCCAACATGGACCGGTTTTCCCGGTAATCCGTATTTGTA (site GGTCCGACTTA) | 0.0188
GGTCCAACATGGACCGGTTTTCCCGGTAATCCGTATTTGTA (site GGTCCTACTTA) | 0.00929
GGTCCAACATGGACCGGTTTTCCCGGTAATCCGTATTTGTA (site GGTCGAACTTA) | 0.0172
GGTCCAACATGGACCGGTTTTCCCGGTAATCCGTATTTGTA (site GGTCTAACTTA) | 0.00385
GGTCCAACATGGACCGGTTTTCCCGGTAATCCGTATTTGTA (site GGTGCAACTTA) | 0.0122
GGTCCAACATGGACCGGTTTTCCCGGTAATCCGTATTTGTA (site GGTTCAACTTA) | 0.0111
GGTCCAACATGGACCGGTTTTCCCGGTAATCCGTATTTGTA (site GTTCCAACTTA) | 0.0101

Sequence | recombinant UMI read abundance (log10)
GGTCCAACATGGACCGGTTTTCCCGGTAATCCGTATTTGTA (site TGTCCAACTTA) | 0.00249
GGTCCAACATGGACCGGTTTTCCCGGTAATCCGTATTTGTG (site GGTCCAACTAA) | 0.00832
GGTCCAACATGGACCGGTTTTCCCGGTAATCCGTATTTGTG (site GGTCCAACTCA) | 0.00564
GGTCCAACATGGACCGGTTTTCCCGGTAATCCGTATTTGTG (site GGTCCAACTGA) | 0
GGTCCAACATGGACCGGTTTTCCCGGTAATCCGTATTTGTG (site GGTCCAACTTA) | 0.00906
GGTCCCTCATGGACCGGTTTTCCCGGTAATCCGTATTTGTG (site GGTCCCTCTCA) | 0.413
GGTGAACCATGGACCGGTTTTCCCGGTAATCCGTATTTGGG (site GGTGAACCTCC) | 0
GGTGAAGCATGGACCGGTTTTCCCGGTAATCCGTATTTGAG (site GGTGAAGCTCT) | 1.82
GGTGACTCATGGACCGGTTTTCCCGGTAATCCGTATTTGAC (site GGTGACTCTGT) | 2.47
GGTGAGGCATGGACCGGTTTTCCCGGTAATCCGTATTTGGT (site GGTGAGGCTAC) | 1.1
GGTGAGTCATGGACCGGTTTTCCCGGTAATCCGTATTTGGC (site GGTGAGTCTGC) | 2.23
GGTGCAACATGGACCGGTTTTCCCGGTAATCCGTATTTGTA (site GGTACAACTTA) | 0.01
GGTGCAACATGGACCGGTTTTCCCGGTAATCCGTATTTGTA (site GGTCCAACTTA) | 0.00521
GGTGCAACATGGACCGGTTTTCCCGGTAATCCGTATTTGTA (site GGTGCAACTTA) | 0.221
GGTGCAACATGGACCGGTTTTCCCGGTAATCCGTATTTGTA (site GGTTCAACTTA) | 0.00709
GGTGCGTCATGGACCGGTTTTCCCGGTAATCCGTATTTGGA (site GGTGCGTCTTC) | 0.59
GGTGTTCCATGGACCGGTTTTCCCGGTAATCCGTATTTGGT (site GATGTTCCTAC) | 0.0226
GGTGTTCCATGGACCGGTTTTCCCGGTAATCCGTATTTGGT (site GCTGTTCCTAC) | 0.0204
GGTGTTCCATGGACCGGTTTTCCCGGTAATCCGTATTTGGT (site GGTGTTCCTAC) | 0.0141
GGTGTTCCATGGACCGGTTTTCCCGGTAATCCGTATTTGGT (site GTTGTTCCTAC) | 0
GGTTACCCATGGACCGGTTTTCCCGGTAATCCGTATTTGTC (site GGTTACCCTGA) | 0.664
GGTTCCCCATGGACCGGTTTTCCCGGTAATCCGTATTTGTA (site AGTTCCCCTTA) | 0.0122
GGTTCCCCATGGACCGGTTTTCCCGGTAATCCGTATTTGTA (site CGTTCCCCTTA) | 0.00861
GGTTCCCCATGGACCGGTTTTCCCGGTAATCCGTATTTGTA (site GGTTCCCCTTA) | 0.0107
GGTTCCCCATGGACCGGTTTTCCCGGTAATCCGTATTTGTA (site TGTTCCCCTTA) | 0.0103

Sequence | recombinant UMI read abundance (log10)
GGTTCCGCATGGACCGGTTTTCCCGGTAATCCGTATTTGAA (site GGTTCCGCTTT) | 0
GGTTCTACATGGACCGGTTTTCCCGGTAATCCGTATTTGAG (site GGTTCTACTCT) | 0.316
GGTTGGTCATGGACCGGTTTTCCCGGTAATCCGTATTTGCA (site GGTTGGTCTTG) | 1.59
GGTTTGTCATGGACCGGTTTTCCCGGTAATCCGTATTTGTG (site GGTTTGTCTCA) | 1.21
GTAAAATCATGGACCGGTTTTCCCGGTAATCCGTATTTGCA (site GTAAAATCTTG) | 1.81
GTAAAGACATGGACCGGTTTTCCCGGTAATCCGTATTTGGG (site GTAAAGACTCC) | 0.889
GTAACGCCATGGACCGGTTTTCCCGGTAATCCGTATTTGTC (site GTAACGCCTGA) | 0
GTAAGTTCATGGACCGGTTTTCCCGGTAATCCGTATTTGTC (site GTAAGTTCTGA) | 2.1
GTACAAGCATGGACCGGTTTTCCCGGTAATCCGTATTTGCA (site GTACAAGCTTG) | 2.69
GTACCCACATGGACCGGTTTTCCCGGTAATCCGTATTTGTC (site GTACCCACTGA) | 2.64
GTACCTTCATGGACCGGTTTTCCCGGTAATCCGTATTTGAC (site GTACCTTCTGT) | 2.06
GTACGCACATGGACCGGTTTTCCCGGTAATCCGTATTTGTA (site GTAAGCACTTA) | 0.0204
GTACGCACATGGACCGGTTTTCCCGGTAATCCGTATTTGTA (site GTACGCACTTA) | 2.17
GTACGCACATGGACCGGTTTTCCCGGTAATCCGTATTTGTA (site GTAGGCACTTA) | 0.0167
GTACGCACATGGACCGGTTTTCCCGGTAATCCGTATTTGTA (site GTATGCACTTA) | 0.266
GTACTTCCATGGACCGGTTTTCCCGGTAATCCGTATTTGCT (site GTACTTCCTAG) | 1.14
GTAGCCGCATGGACCGGTTTTCCCGGTAATCCGTATTTGCG (site GTAGACGCTCG) | 0.446
GTAGCCGCATGGACCGGTTTTCCCGGTAATCCGTATTTGCG (site GTAGCCGCTCG) | 2.08
GTAGCCGCATGGACCGGTTTTCCCGGTAATCCGTATTTGCG (site GTAGGCGCTCG) | 0.0284
GTAGCCGCATGGACCGGTTTTCCCGGTAATCCGTATTTGCG (site GTAGTCGCTCG) | 0.781
GTAGCCTCATGGACCGGTTTTCCCGGTAATCCGTATTTGTT (site GTAGCCTCTAA) | 2.42
GTAGCGACATGGACCGGTTTTCCCGGTAATCCGTATTTGTC (site GTAGCGACTGA) | 2.92
GTAGCTACATGGACCGGTTTTCCCGGTAATCCGTATTTGAC (site GTAGATACTGT) | 1.02
GTAGCTACATGGACCGGTTTTCCCGGTAATCCGTATTTGAC (site GTAGCTACTGT) | 2.4
GTAGCTACATGGACCGGTTTTCCCGGTAATCCGTATTTGAC (site GTAGGTACTGT) | 0
